Data taken from US8106091B2, “Inhibitors of IKK-beta serine-threonine protein kinase” (Chroma Therapeutics Ltd., priority 2006, dated 2012).

Columns and labels:
human whole blood = assay: LPS-stimulation of human whole blood, TNF-α release; assay type: cell-based; settings: LPS 100 ng/ml, 6 hrs, inhibitor added 2 hrs before, read-out: Inhibitor activity versus human whole blood TNFα release
Protocol: LPS-Stimulation of Human Whole Blood
Whole blood was taken by venous puncture using heparinised vacutainers (Becton Dickinson) and diluted in an equal volume of RPMI1640 tissue culture media (Sigma). 100 μl was plated in V-bottomed 96 well tissue culture treated plates. 2 hrs after the addition of the inhibitor in 100 μl of RPMI1640 media, the blood was stimulated with LPS (E coli strain 005:B5, Sigma) at a final concentration of 100 ng/ml and incubated at 37° C. in 5% CO2 for 6 hrs. TNF-α levels were measured from cell-free supernatants by sandwich ELISA (R&D Systems #QTA00B)

IKBKB (IKKβ) = target: T1, IKBKB (IKKβ) (Homo sapiens, UniProt O14920); assay: IKKβ enzyme assay (Z'-LYTE, Invitrogen); assay type: biochemical; settings: ATP at or close to Km; read-out: Inhibitor activity versus IKKβ
T1 construct: purchased Invitrogen (Paisley, UK)
T1 sequence (O14920 1-756): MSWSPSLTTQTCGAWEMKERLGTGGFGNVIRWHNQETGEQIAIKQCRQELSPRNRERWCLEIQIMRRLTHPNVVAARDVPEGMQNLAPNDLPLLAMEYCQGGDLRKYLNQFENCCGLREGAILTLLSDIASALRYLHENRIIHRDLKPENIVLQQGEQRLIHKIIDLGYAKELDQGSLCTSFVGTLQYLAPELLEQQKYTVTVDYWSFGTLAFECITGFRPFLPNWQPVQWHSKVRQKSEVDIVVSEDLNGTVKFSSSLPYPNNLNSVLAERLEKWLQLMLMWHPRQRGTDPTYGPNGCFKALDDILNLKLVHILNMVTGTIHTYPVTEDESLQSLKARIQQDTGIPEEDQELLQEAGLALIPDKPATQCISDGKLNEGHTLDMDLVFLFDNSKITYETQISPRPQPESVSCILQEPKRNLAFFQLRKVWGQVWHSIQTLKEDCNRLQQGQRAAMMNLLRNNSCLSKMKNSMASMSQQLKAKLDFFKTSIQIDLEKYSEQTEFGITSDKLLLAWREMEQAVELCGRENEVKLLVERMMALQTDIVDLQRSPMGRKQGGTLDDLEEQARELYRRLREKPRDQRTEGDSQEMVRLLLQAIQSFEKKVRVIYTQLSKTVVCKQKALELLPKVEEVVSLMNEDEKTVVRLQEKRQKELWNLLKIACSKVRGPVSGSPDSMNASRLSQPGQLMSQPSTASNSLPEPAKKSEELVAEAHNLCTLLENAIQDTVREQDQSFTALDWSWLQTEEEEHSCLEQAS
Protocol: The ability of compounds to inhibit IKKβ kinase activity was measured in an assay performed by Invitrogen (Paisley, UK). The Z′-LYTE™ biochemical assay employs a fluorescence-based, coupled-enzyme format and is based on the differential sensitivity of phosphorylated and non-phosphorylated peptides to proteolytic cleavage. The peptide substrate is labelled with two fluorophores—one at each end—that make up a FRET pair. In the primary reaction, the kinase transfers the gamma-phosphate of ATP to a single serine or threonine residue in a synthetic FRET-peptide. In the secondary reaction, a site-specific protease recognizes and cleaves non-phosphorylated FRET-peptides. Phosphorylation of FRET-peptides suppresses cleavage by the Development Reagent. Cleavage disrupts FRET between the donor (i.e., coumarin) and acceptor (i.e. fluorescein) fluorophores on the FRET-peptide, whereas uncleaved, phosphorylated FRET-peptides maintain FRET. A […] method, which calculates the ratio (the Emission Ratio) of donor emission to acceptor emission after excitation of the donor fluorophore at 400 nm, is used to quantitate reaction progress.
The final 10 μL Kinase Reaction consists of 0.9-8.0 ng IKBKB (IKKβ), 2 μM Ser/Thr 05 Peptide and ATP in 50 mM HEPES pH 7.5, 0.01% BRIJ-35, 10 mM MgCl2, 1 mM EGTA. The assay is performed at an ATP concentration at, or close to the Km. After the 60 minute Kinase Reaction incubation at room temperature, 5 μL of a 1:128 dilution of Development Reagent is added. The assay plate is incubated for a further 60 minutes at room temperature and read on a fluorescence plate reader.
Duplicate data points are generated from a ⅓ log dilution series of a stock solution of test compound in DMSO. Nine dilutions steps are made from a top concentration of 10 μM, and a ‘no compound’ blank is included. Data is collected and analysed using XLfit software from IDBS. The dose response curve is curve fitted to model number 205 (sigmoidal dose-response model). From the curve generated, the concentration giving 50% inhibition is determined and reported.

THP-1 cells = assay: LPS-stimulation of THP-1 cells, TNF-α release; assay type: cell-based; settings: Homo sapiens, LPS 1 μg/ml, 6 hrs, inhibitor added 2 hrs before, read-out: Inhibitor activity versus THP-1 TNFα release
Protocol: LPS-Stimulation of THP-1 Cells
THP-1 cells were plated in 100 μl at a density of 4×10^4 cells/well in V-bottomed 96 well tissue culture treated plates and incubated at 37° C. in 5% CO2 for 16 hrs. 2 hrs after the addition of the inhibitor in 100 μl of tissue culture media, the cells were stimulated with LPS (E coli strain 005:B5, Sigma) at a final concentration of 1 μg/ml and incubated at 37° C. in 5% CO2 for 6 hrs. TNF-α levels were measured from cell-free supernatants by sandwich ELISA (R&D Systems #QTA00B)

SMILES	IC50 (human whole blood)	IC50 (IKBKB (IKKβ))	IC50 (THP-1 cells)
NC(=O)Nc1sc(-c2ccc(OCC[C@H](N)C(=O)OC3CCCC3)c(Cl)c2)cc1C(N)=O [Example 8, Cyclopentyl O-{4-[4-carbamoyl-5-(carbamoylamino)-2-thienyl]-2-chlorolphenyl}-L-homoserinate]	> 5000 nM	< 1000 nM	1000 to 5000 nM
NC(=O)Nc1sc(-c2ccc(/C=C/C[C@H](N)C(=O)OC3CCCC3)cc2)cc1C(N)=O [Example 9, Cyclopentyl (2S,4E)-2-amino-5-{4-[4-carbamoyl-5-(carbamoylamino)-2-thienyl]phenyl}pent-4-enoate]	< 1000 nM	< 1000 nM	< 1000 nM
NC(=O)Nc1sc(-c2ccc(C[C@H](N)C(=O)OC3CCCC3)cc2)cc1C(N)=O [Example 16, Cyclopentyl 4-[4-carbamoyl-5-(carbamoylamino)-2-thienyl]-L-phenylalaninate]	1000 to 5000 nM	< 1000 nM	< 1000 nM
NC(=O)Nc1sc(-c2ccc(N(CC[C@H](N)C(=O)OC3CCCC3)Cc3ccccc3)cc2)cc1C(N)=O [Example 21, Cyclopentyl (2S)-2-amino-4-(benzyl{4-[4-carbamoyl-5-(carbamoylamino)thiophen-2-yl]phenyl}amino)butanoate]		< 1000 nM	1000 to 5000 nM
NC(=O)Nc1sc(-c2ccc(CCC[C@H](N)C(=O)OC3CCCC3)cc2)cc1C(N)=O [Example 11, Cyclopentyl 5-{4-[4-carbamoyl-5-(carbamoylamino)-2-thienyl]phenyl}-L-norvalinate]	1000 to 5000 nM	< 1000 nM	< 1000 nM
Cc1cc(OCC[C@H](N)C(=O)OC2CCCC2)ccc1-c1cc(C(N)=O)c(NC(N)=O)s1 [Example 5, Cyclopentyl O-{4-[4-carbamoyl-5-(carbamoylamino)-2-thienyl]-3-methylphenyl}-L-homoserinate]	> 5000 nM	< 1000 nM	< 1000 nM
NC(=O)Nc1sc(-c2ccc(COCC[C@H](N)C(=O)OC3CCCC3)cc2)cc1C(N)=O [Example 17, Cyclopentyl O-{4-[4-carbamoyl-5-(carbamoylamino)-2-thienyl]benzyl}-L-homoserinate]		< 1000 nM	1000 to 5000 nM
NC(=O)Nc1sc(-c2ccc(/C=C/C[C@@H](N)C(=O)OC3CCCC3)cc2)cc1C(N)=O [Example 10, Cyclopentyl (2R,4E)-2-amino-5-{4-[4-carbamoyl-5-(carbamoylamino)-2-thienyl]phenyl}pent-4-enoate]	< 1000 nM	< 1000 nM	< 1000 nM
NC(=O)Nc1sc(-c2ccc(OCC[C@H](N)C(=O)OC3CCCC3)cc2)cc1C(N)=O [Example 2, Cyclopentyl O-{4-[4-carbamoyl-5-(carbamoylamino)-2-thienyl]phenyl}-L-homoserinate]		< 1000 nM	1000 to 5000 nM
NC(=O)Nc1sc(-c2ccc(OCC[C@H](N)C(=O)OC3CCCC3)cc2Cl)cc1C(N)=O [Example 7, Cyclopentyl O-{4-[4-carbamoyl-5-(carbamoylamino)-2-thienyl]-3-chlorophenyl}-L-homoserinate]	> 5000 nM	< 1000 nM	< 1000 nM
NC(=O)Nc1sc(-c2ccc(OCC[C@@H](N)C(=O)OC3CCCC3)cc2)cc1C(N)=O [Example 1, Cyclopentyl O-{4-[4-carbamoyl-5-(carbamoylamino)-2-thienyl]phenyl}-D-homoserinate]	1000 to 5000 nM	< 1000 nM	< 1000 nM
NC(=O)Nc1sc(-c2ccc(OCC[C@H](NC3CCCCC3)C(=O)OC3CCCC3)cc2)cc1C(N)=O [Example 19, Cyclopentyl O-{4-[4-carbamoyl-5-(carbamoylamino)thiophen-2-yl]phenyl}-N-cyclohexyl-L-homoserinate]		< 1000 nM	> 5000 nM
NC(=O)Nc1cc(-c2ccc(C[C@H](N)C(=O)OC3CCCC3)cc2)sc1C(N)=O [Example 24, Cyclopentyl 4-[5-carbamoyl-4-(carbamoylamino)-2-thienyl]-L-phenylalaninate]		< 1000 nM	> 5000 nM
NC(=O)Nc1cc(-c2ccc(OCC[C@H](N)C(=O)OC3CCCC3)cc2)sc1C(N)=O [Example 23, Cyclopentyl O-{4-[5-carbamoyl-4-(carbamoylamino)-2-thienyl]phenyl}-L-homoserinate]		< 1000 nM	1000 to 5000 nM
NC(=O)Nc1sc(-c2ccc(/C=C/C[C@@H](NC3CCCCC3)C(=O)OC3CCCC3)cc2)cc1C(N)=O [Example 20, Cyclopentyl (2R,4E)-5-{4-[4-carbamoyl-5-(carbamoylamino)thiophen-2-yl]phenyl}-2-(cyclohexylamino)pent-4-enoate]		< 1000 nM	1000 to 5000 nM
NC(=O)Nc1sc(-c2ccc(CCC[C@@H](N)C(=O)OC3CCCC3)cc2)cc1C(N)=O [Example 12, Cyclopentyl 5-{4-[4-carbamoyl-5-(carbamoylamino)-2-thienyl]phenyl}-D-norvalinate]		< 1000 nM	< 1000 nM
NC(=O)Nc1sc(-c2ccc(OCC[C@@H](N)C(=O)O)cc2)cc1C(N)=O [Example 25, O-{4-[4-Carbamoyl-5-(carbamoylamino)-2-thienyl]phenyl}-D-homoserine]		< 1000 nM	
NC(=O)Nc1sc(-c2ccc(/C=C/C[C@@H](N)C(=O)O)cc2)cc1C(N)=O [Example 34, (2R,4E)-2-amino-5-{4-[4-carbamoyl-5-(carbamoylamino)-2-thienyl]phenyl}pent-4-enoic acid]		< 1000 nM	
NC(=O)Nc1sc(-c2ccc(/C=C/C[C@H](N)C(=O)O)cc2)cc1C(N)=O [Example 33, (2S,4E)-2-amino-5-{4-[4-carbamoyl-5-(carbamoylamino)-2-thienyl]phenyl}pent-4-enoic acid]		< 1000 nM	
NC(=O)Nc1sc(-c2ccc(/C=C/C[C@@H](NC3CCCCC3)C(=O)O)cc2)cc1C(N)=O [Example 44, (2R,4E)-5-{4-[4-carbamoyl-5-(carbamoylamino)thiophen-2-yl]phenyl}-2-(cyclohexylamino)pent-4-enoic acid]		< 1000 nM	
NC(=O)Nc1sc(-c2ccc(OCCC[C@@H](N)C(=O)OC3CCCC3)cc2)cc1C(N)=O [Example 4, Cyclopentyl 5-{4-[4-carbamoyl-5-(carbamoylamino)-2-thienyl]phenoxy}-D-norvalinate]		< 1000 nM	1000 to 5000 nM
NC(=O)Nc1sc(-c2ccc(CCC[C@@H](N)C(=O)O)cc2)cc1C(N)=O [Example 36, 5-{4-[4-carbamoyl-5-(carbamoylamino)-2-thienyl]phenyl}-D-norvaline]		< 1000 nM	
